{
  "source": "patent US9910044B2",
  "about": "“Methods for identifying arthropod repellents based on modulation of specific ionotropic receptors, and compounds and compositions identified by such methods” (The Regents of the University of California, priority 2013, dated 2018)",
  "key": {"Drosophila [1]": {"test_system": "Drosophila", "assay_type": "in vivo, Drosophila melanogaster"}, "[2]": {"test_system": "mammalian cation channels", "conditions": "cited from earlier work"}, "[3]": {"target": "human acetylcholinesterase (Homo sapiens, UniProt P22303)", "sequence (P22303 32-614)": "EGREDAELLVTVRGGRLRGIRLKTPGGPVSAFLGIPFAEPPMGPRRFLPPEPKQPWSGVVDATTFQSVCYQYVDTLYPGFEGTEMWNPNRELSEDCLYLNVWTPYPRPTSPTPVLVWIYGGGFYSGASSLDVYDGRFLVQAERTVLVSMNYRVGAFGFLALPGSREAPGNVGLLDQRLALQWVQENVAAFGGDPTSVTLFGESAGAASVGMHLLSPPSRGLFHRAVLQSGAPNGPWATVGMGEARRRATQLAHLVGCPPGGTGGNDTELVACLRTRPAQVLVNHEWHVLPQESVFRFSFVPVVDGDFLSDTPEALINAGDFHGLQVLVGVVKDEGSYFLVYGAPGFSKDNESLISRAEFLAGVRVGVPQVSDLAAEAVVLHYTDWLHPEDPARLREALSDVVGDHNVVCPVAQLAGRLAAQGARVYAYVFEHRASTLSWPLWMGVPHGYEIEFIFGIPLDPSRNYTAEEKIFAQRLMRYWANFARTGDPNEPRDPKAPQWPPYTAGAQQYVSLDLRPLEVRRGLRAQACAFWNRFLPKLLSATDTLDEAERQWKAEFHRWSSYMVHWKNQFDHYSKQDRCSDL", "conditions": "Corbel et al., BMC Biol, 7, 2009; cited from earlier work"}, "Drosophila [4]": {"test_system": "Drosophila", "assay": "Drosophila olfactory avoidance assay, 2-choice trap", "assay_type": "in vivo, Drosophila melanogaster", "protocol": "For each trial, three- to six-day old flies (10 males and 10 females) were starved for 18 hours. Flies were transferred to a cylindrical 38.1 mm D×84.1 mm H chamber containing two traps each fashioned from an upturned 1.5 ml microcentrifuge tube with 2 mm removed from the tapered end. A pipette tip (1000 μl), was cut 2.5 cm from narrow end and 0.5 cm from top and inserted into the bottom of the inverted microcentrifuge tube. A 15 mm×16 mm #1 Whatmann filter paper was inserted in between the pipette tip and tip of microcentrifuge tube in a manner that entering flies cannot make physical contact with it. With reference to FIG. 2A, for the 1-choice test, a 50 μl sample of test odorant (50% DEET in DMSO) was applied to filter paper and 125 μl of 10% apple cider vinegar (ACV) is applied to the upturned lid of the microcentrifuge tube as attractant. With reference again to FIG. 2A, for the 2-choice test, two 10% ACV lured traps were placed in the cylinder, one with DMSO as the solvent (right) and another with DEET (left)."}},
  "note": "Like-named read-outs stand apart in the source and are kept apart here.",
  "data": [
    {"smiles": "CCN(CC)C(=O)c1cccc(C)c1", "note": "[DEET, N,N-Diethyl-m-toluamide]", "values": [
      {"measurement": "avoidance of DEET-treated trap", "setting": "Drosophila [1]; Ir25a neuron-TNTG flies (Ir25a-Ga14/UAS-TNTG), 10% ACV lure", "value": "substantially decreased"},
      {"measurement": "avoidance of DEET-treated trap", "setting": "Drosophila [1]; Ir40a neuron-TNTG flies (Ir40a-Ga14/UAS-TNTG), versus controls, 10% ACV lure", "value": "substantially decreased"},
      {"measurement": "avoidance of DEET-treated trap", "setting": "Drosophila [1]; control flies Ir25a-Ga14/UAS-IMPTV, 10% ACV lure", "value": "observed to avoid DEET"},
      {"measurement": "avoidance of DEET-treated trap", "setting": "Drosophila [1]; control flies Ir40a-G4/+ and UAS-TNTG/+, 10% ACV lure", "value": "observed to avoid DEET"},
      {"measurement": "avoidance of DEET-treated trap", "setting": "Drosophila [1]; in vivo", "value": "observed to avoid DEET"},
      {"measurement": "olfactory avoidance to DEET", "setting": "Drosophila [1]; in vivo", "value": "nearly abolished"},
      {"measurement": "inhibition of mammalian cation channels", "setting": "[2]", "value": "inhibit"},
      {"measurement": "inhibition of human acetylcholinesterase", "setting": "[3]", "value": "inhibit"},
      {"measurement": "avoidance response to volatile DEET", "setting": "Drosophila [4]; Ir40a neuron-silenced flies (Ir40a-promoter-Ga14, UAS-kir), 10% ACV lure", "value": "avoidance was observed to be lost"},
      {"measurement": "DEET avoidance", "setting": "Drosophila [4]; Ir40a-RNAi flies (Ir40a-G4 with UAS-Ir40a-RNAi) compared to control flies, 10% ACV lure", "value": "loss of DEET avoidance"},
      {"measurement": "olfactory DEET avoidance", "setting": "Drosophila [4]; Ir93a-/- and Ir25a receptor mutant flies, FIG. 6B", "value": "found to be involved in olfactory DEET avoidance"},
      {"measurement": "olfactory avoidance to DEET", "setting": "Drosophila [4]; two DGRP lines with mutations in Ir40a (RAL-158, RAL-272), DEET 50% in DMSO, 10% ACV lure", "value": "nearly abolished"},
      {"measurement": "avoidance response to volatile DEET", "setting": "Drosophila [4]; two control lines of the Ir40a-promoter-Ga14/UAS-kir experiment, 10% ACV lure", "value": "robust and reproducible avoidance response"},
      {"measurement": "avoidance response to volatile DEET", "setting": "Drosophila [4]; wild-type Canton-S, DEET 50% in DMSO, 10% ACV lure", "value": "robust and reproducible avoidance response"}
    ]}
  ]
}
